This data set relates to human APOE RNA. As to the kind of experiment: Activity in APOE C57BL/6NTac-Apoeem7250 knock-in mice, single ICV bolus, 16 weeks (Example 12). The data set is classed as in vivo. The note with it: single ICV bolus 300 μg, 16 weeks post treatment, normalized to mouse Ppia. As for the experimental part:
Modified oligonucleotides described above were tested in the APOE C57BL/6NTac-Apoeem7250 knock-in mouse model described above.
APOE C57BL/6NTac-Apoeem7250 knock-in mice were divided into groups of 3-4 mice each. Each mouse received a single intracerebroventricular (ICV) bolus of 300 μg of modified oligonucleotide. A group of 4 mice received a single ICV bolus with PBS as a negative control.
Sixteen weeks post treatment, mice were sacrificed and RNA was extracted from cortical brain tissue and spinal cord for quantitative real-time RT-PCR analysis of RNA expression of APOE using primer probe set RTS3073 (described herein above). APOE RNA levels were normalized to mouse Ppia. Mouse Ppia was amplified using primer probe set m_cyclo24 (described herein above). Results are presented as percent human APOE RNA relative to the amount of human APOE RNA in PBS treated animals, (% control). Each experiment is identified in separate tables below.

Strand notation (5' to 3'): a small letter for the sugar, then the base; units joined by * are phosphorothioate-linked, units joined directly phosphodiester-linked; [ ] holds rarer units or linkages, { } end groups; capitals alone tell only the bases. [ms] = mesyl phosphoramidate linkage; e = 2'-O-(2-methoxyethyl) (MOE); [5mC] = 5-methylcytosine; d = 2'-deoxy (DNA)

In the case of “1693075: 5-10-5 MOE gapmer ACTTGGTGAATCTTTATTAA, linkages ssssssszzzzzsssssss (eA*e[5mC]*eT*eT*eG*dG*dT*dG[ms]dA[ms]dA[ms]dT[ms]d[5mC][ms]dT*dT*dT*eA*eT*eT*eA*eA) [compound 1693075]”, the “APOE RNA (% control) Cortex” value is recorded as 87 % control and the “APOE RNA (% control) Spinal Cord” value was 64 % control.

For the substance “1693065: 5-10-5 MOE gapmer ACTTGGTGAATCTTTATTAA, linkages soossssszzsssssssss (antisense eA*e[5mC]eTeT*eG*dG*dT*dG*dA[ms]dA[ms]dT*d[5mC]*dT*dT*dT*eA*eT*eT*eA*eA) [compound 1693065]”, the “APOE RNA (% control) Cortex” value worked out at 82 % control and the “APOE RNA (% control) Spinal Cord” value was found to be 46 % control.

Turning to “1693103: 6-10-4 MOE gapmer CTTGGTGAATCTTTATTAAA, linkages sssosszzzssssszssss (e[5mC]*eT*eT*eGeG*eT*dG[ms]dA[ms]dA[ms]dT*d[5mC]*dT*dT*dT*dA[ms]dT*eT*eA*eA*eA) [compound 1693103]”, the “APOE RNA (% control) Cortex” value amounted to 84 % control and the “APOE RNA (% control) Spinal Cord” value worked out at 56 % control.

For “1693064: 5-10-5 MOE gapmer ACTTGGTGAATCTTTATTAA, linkages soossssszzsssssosss (antisense eA*e[5mC]eTeT*eG*dG*dT*dG*dA[ms]dA[ms]dT*d[5mC]*dT*dT*dT*eAeT*eT*eA*eA) [compound 1693064]”, the “APOE RNA (% control) Cortex” value amounted to 83 % control and the “APOE RNA (% control) Spinal Cord” value stood at 48 % control.

Take “1693072: 5-10-5 MOE gapmer ACTTGGTGAATCTTTATTAA, linkages ssssosszzzzzsssssss (eA*e[5mC]*eT*eT*eGdG*dT*dG[ms]dA[ms]dA[ms]dT[ms]d[5mC][ms]dT*dT*dT*eA*eT*eT*eA*eA) [compound 1693072]”: the “APOE RNA (% control) Cortex” value is on record as 82 % control and the “APOE RNA (% control) Spinal Cord” value came to 61 % control.

For “1693143: 6-10-4 MOE gapmer ACTTGGTGAATCTTTATTAA, linkages ssossszzzssssszsss (as printed) (sugars from the 5' end e6 d10 e4, all C 5-methyl, backbone not given here; further chemistry not fully specified) [compound 1693143]”, the “APOE RNA (% control) Cortex” value was determined as 76 % control and the “APOE RNA (% control) Spinal Cord” value was found to be 64 % control.

In the case of “1693080: 6-10-4 MOE gapmer TTGGTGAATCTTTATTAAAC, linkages ssssoszzszssszssoss (eT*eT*eG*eG*eTeG*dA[ms]dA[ms]dT*d[5mC][ms]dT*dT*dT*dA[ms]dT*dT*eAeA*eA*e[5mC]) [compound 1693080]”, the “APOE RNA (% control) Cortex” value is reported as 99 % control and the “APOE RNA (% control) Spinal Cord” value is 88 % control.

With “1693062: 5-10-5 MOE gapmer TTGGTGAATCTTTATTAAAC, linkages ssssozzzsssszzsssss (antisense eT*eT*eG*eG*eTdG[ms]dA[ms]dA[ms]dT*d[5mC]*dT*dT*dT[ms]dA[ms]dT*eT*eA*eA*eA*e[5mC]) [compound 1693062]”, the “APOE RNA (% control) Cortex” value worked out at 98 % control and the “APOE RNA (% control) Spinal Cord” value is 110 % control.

As to “1693077: 6-10-4 MOE gapmer TTGGTGAATCTTTATTAAAC, linkages sosssszzszssszssoss (eT*eTeG*eG*eT*eG*dA[ms]dA[ms]dT*d[5mC][ms]dT*dT*dT*dA[ms]dT*dT*eAeA*eA*e[5mC]) [compound 1693077]”, the “APOE RNA (% control) Cortex” value turned out to be 98 % control and the “APOE RNA (% control) Spinal Cord” value was found to be 76 % control.

The values above are taken from patent publication US20250353873A1, “COMPOUNDS AND METHODS FOR MODULATING APOE EXPRESSION” (Ionis Pharmaceuticals, Inc., priority 2024, published 2025).
